Here are results for 30 compounds from ChEMBL document CHEMBL1157904, “Discovery of pyrazolthiazoles as novel and potent inhibitors of bacterial gyrase” (Bioorg Med Chem Lett, 2010).

Values after ≈ are worked out from the molar mass of the structure shown. Active and inactive are the calls of the source. The calls are words filed in the database; no cut-off is given here.

The Ki is the equilibrium dissociation constant of an inhibitor or competing ligand from its target. A low value points to tighter binding. A word on the MIC: it is the lowest concentration that inhibits growth of the organism.

Test [1] in a line: Inhibition of ATPase activity of Escherichia coli DNA gyrase B.
Test [2] deals with Escherichia coli. Description: Antibacterial activity against tol C pump knockout Escherichia coli CAG12184. It is filed as functional.
The test system of test [3] is Escherichia coli. Description: Antibacterial activity against wild type Escherichia coli. It counts as functional.
The nature of test [4]: (§1) Inhibition of ATPase activity of Staphylococcus aureus DNA gyrase B.
In test [5] the test system is Streptococcus pneumoniae. The test is described as follows: Antibacterial activity against Streptococcus pneumoniae ATCC 10015. It is filed as functional.
In test [6] the test system is Staphylococcus aureus. Description: Antibacterial activity against Staphylococcus aureus ATCC 29213. It is filed as functional.
The subject of test [7] is Staphylococcus aureus. The test is described as §1.
The subject of test [8] is Staphylococcus aureus. The test is described as follows: Antibacterial activity against wild type Staphylococcus aureus. It is filed as functional.
Test [9] deals with Streptococcus pneumoniae. The test is described as follows: Antibacterial activity against wild type Streptococcus pneumoniae. It is filed as functional.
A short description of test [10]: Selectivity ratio of Ki for Escherichia coli DNA gyraseB to Ki for Staphylococcus aureus DNA gyraseB.

Compound `CCOC(=O)c1cc(-c2sc(-c3cccs3)nc2C)n[nH]1` showed an inhibition constant Ki in test [1] of 2600 nM.

The compound `CCOC(=O)c1cc(-c2sc(-c3cccnc3)nc2C2CCCCC2)n[nH]1` showed an inhibition constant Ki in test [1] of 120 nM.

Take `COC(=O)NCc1cc(-c2sc(-c3cccnc3)nc2N2CCCCC2)n[nH]1`: the Ki in [1] amounted to 56 nM; in [4], 300 nM. In addition, the MIC against Escherichia coli [2] was > 64 µg/mL. Besides, in the test with Escherichia coli [3], the outcome was inactive.

Consider `CCNC(=O)c1cc(-c2sc(-c3cccnc3)nc2-c2ccccc2)n[nH]1`, for which the MIC with Streptococcus pneumoniae [5] came out at 2 µg/mL (≈ 5.33 µM); with Escherichia coli [2], 4 µg/mL (≈ 10.7 µM); with Staphylococcus aureus [6] it was 8 µg/mL (≈ 21.3 µM). The inhibitory constant (Ki) in test [1] stood at 45 nM. Also, the inhibition entry with Staphylococcus aureus [7] was “Active”.

With `CCNC(=O)c1cc(-c2sc(-c3cccnc3)nc2[C@H]2CCCCN2)n[nH]1`, the MIC in the test with Streptococcus pneumoniae [5], against Escherichia coli [2] and against Staphylococcus aureus [6] was > 64 µg/mL each time. The same compound registered a Ki in test [1] of 3400 nM. Also, in the test on Staphylococcus aureus [7], the inhibition entry was “Active”.

In turn, `CSc1cc(-c2sc(-c3ccccc3)nc2C)n[nH]1` yielded an inhibition constant (Ki) in [1] of 3500 nM.

With `CCCc1nc(-c2ccccc2)sc1-c1cc(C(=O)OCC)[nH]n1`, the Ki in test [1] came to 800 nM.

For `CCNC(=O)c1cc(-c2sc(-c3cccnc3)nc2[C@@H]2CCCN2)n[nH]1`, the affinity in test [1], expressed as Ki, was 82 nM. This compound came in with a minimal inhibitory concentration (MIC) with Escherichia coli [2] of 32 µg/mL (≈ 86.8 µM).

Take `CCOC(=O)c1cc(-c2sc(-c3cccnc3)nc2-c2ccccc2)n[nH]1`: the inhibition constant Ki in test [1] was 70 nM. That is a double-digit nanomolar value.

Regarding `CCOC(=O)c1cc(-c2sc(-c3ccccc3)nc2N2CCOCC2)n[nH]1`, in [1], the inhibition constant Ki came to 630 nM. Moreover, the minimal inhibitory concentration (MIC) against Staphylococcus aureus [8], against Escherichia coli [3] and against Streptococcus pneumoniae [9] was > 64 µg/mL throughout.

With `CCNC(=O)c1cc(-c2sc(-c3cccnc3)nc2[C@@H]2CCCCN2)n[nH]1`, the figures for the MIC against Streptococcus pneumoniae [5], in the test on Escherichia coli [2] and against Staphylococcus aureus [6] were 1.5 µg/mL (≈ 3.92 µM), 48 µg/mL (≈ 125 µM) and 32 µg/mL (≈ 83.7 µM), respectively. The Ki in test [1] is 40 nM. Further, the inhibition result with Staphylococcus aureus [7] was “Active”.

Take `CSc1cc(-c2sc(-c3cccs3)nc2C)[nH]n1`: the inhibition constant Ki in test [1] came to 2900 nM.

`CCOC(=O)c1cc(-c2sc(-c3ccccc3)nc2C)n[nH]1` had a Ki in test [1] of 1700 nM.

For the compound `CC#CCOC(=O)NCc1cc(-c2sc(-c3cccnc3)nc2N2CCCCC2)n[nH]1`, the values for the Ki in [1] and in test [4] were < 4 nM and 140 nM, respectively. This compound also came in with an MIC in the test with Escherichia coli [2] of 0.5 µg/mL (≈ 1.15 µM). The outcome in the test on Escherichia coli [3] was inactive.

Take `CCc1cc(-c2sc(-c3cccs3)nc2C)n[nH]1`: the inhibition constant (Ki) in [1] stood at 4800 nM.

As for `CCOC(=O)c1cc(-c2sc(-c3ccccc3)nc2N2CCCCC2)n[nH]1`, the inhibition constant Ki in test [1] came out at 210 nM. Also, the minimum inhibitory concentration (MIC) in the test with Staphylococcus aureus [8], in the test with Escherichia coli [3] and with Streptococcus pneumoniae [9] was > 64 µg/mL in each case.

In the case of `CCOC(=O)c1cc(-c2sc(-c3cccnc3)nc2C2CC2)n[nH]1`, the affinity in [1] corresponds to a Ki of 240 nM. This lies in the sub-micromolar range.

In test [1], `CCOC(=O)c1cc(-c2sc(-c3cccnc3)nc2N2CCC(C)CC2)n[nH]1` showed a Ki of 1050 nM. Moreover, the MIC against Staphylococcus aureus [8], in the test with Escherichia coli [3] and in the test with Streptococcus pneumoniae [9] was > 64 µg/mL in each case.

`CCNC(=O)c1cc(-c2sc(-c3cccnc3)nc2-c2ccc(Cl)cc2)n[nH]1`: the MIC came out at 4 µg/mL (≈ 9.76 µM) in the test with Streptococcus pneumoniae [5], 8 µg/mL (≈ 19.5 µM) in the test with Escherichia coli [2] and 8 µg/mL (≈ 19.5 µM) against Staphylococcus aureus [6]. In [1], this compound gave an inhibition constant Ki of 47 nM.

As to `C#CCOC(=O)NCc1cc(-c2sc(-c3cccnc3)nc2N2CCCCC2)[nH]n1`, the Ki was determined as 11 nM in test [1] and 240 nM in [4]. Also, 1 µg/mL (≈ 2.37 µM) was the least that counted as inhibitory with Escherichia coli [2] (MIC). Besides, the outcome in the test on Escherichia coli [3] was inactive. Further, the Ratio Ki in test [10] is 10.

Turning to `CCOC(=O)c1cc(-c2sc(-c3cccnc3)nc2COC)n[nH]1`, the affinity in test [1] corresponds to a Ki of 280 nM. Also, the minimal inhibitory concentration (MIC) in the test on Staphylococcus aureus [8], with Escherichia coli [3] and in the test on Streptococcus pneumoniae [9] was > 64 µg/mL each time.

As for `CCNC(=O)c1cc(-c2sc(-c3cccnc3)nc2C)n[nH]1`, the minimal inhibitory concentration (MIC) against Streptococcus pneumoniae [5], with Escherichia coli [2] and against Staphylococcus aureus [6] was > 64 µg/mL throughout. Also, affinity in test [1] was put at a Ki of 350 nM.

`CCOC(=O)c1cc(-c2sc(-c3cccnc3)nc2CO)n[nH]1`: affinity in test [1] was put at a Ki of 670 nM. The MIC in the test on Staphylococcus aureus [8], in the test on Escherichia coli [3] and against Streptococcus pneumoniae [9] was > 64 µg/mL in each case.

Regarding `COC(=O)NCc1cc(-c2sc(-c3ccccc3)nc2N2CCC(O)CC2)[nH]n1`, in test [1], the affinity, expressed as Ki, was 1080 nM. Also, the MIC in the test with Escherichia coli [2] is > 64 µg/mL. The result in the test on Escherichia coli [3] was inactive.

`CCOC(=O)c1cc(-c2sc(-c3cccnc3)nc2C)n[nH]1` came in with a Ki in test [1] of 330 nM. This lies in the sub-micromolar range.

For the compound `CC#CCOC(=O)NCc1cc(-c2sc(-c3cccnc3)nc2C2CCCCC2)n[nH]1`, the inhibitory constant (Ki) was < 4 nM in test [1] and 69 nM in test [4]. The minimum inhibitory concentration (MIC) in the test with Escherichia coli [2] is > 64 µg/mL. Moreover, the outcome in the test on Escherichia coli [3] was inactive.

For `CC#CCOC(=O)NCc1cc(-c2sc(-c3cccnc3)nc2COC)n[nH]1`, the results for the inhibition constant Ki in [1] and in test [4] were 14 nM and 1100 nM, respectively. In the test on Escherichia coli [2], this compound came in with a minimum inhibitory concentration (MIC) of 8 µg/mL (≈ 20.1 µM). Also, the result in the test with Escherichia coli [3] was inactive.

The compound `CCOC(=O)c1cc(-c2sc(-c3ccccc3)nc2-c2ccccc2)n[nH]1` came in with a Ki in [1] of 140 nM.

In test [1], `CCNC(=O)c1cc(-c2sc(-c3cccnc3)nc2C2CCCCC2)n[nH]1` registered a Ki of 62 nM. Further, the MIC with Escherichia coli [2] was 16 µg/mL (≈ 41.9 µM).

Take `CCNC(=O)c1cc(-c2sc(-c3cccnc3)nc2N2CCCCC2)n[nH]1`: affinity in test [1] was put at a Ki of 90 nM. Also, the minimum inhibitory concentration (MIC) in the test on Escherichia coli [2] turned out to be 32 µg/mL (≈ 83.7 µM).
